Assay results published in ChEMBL document CHEMBL3997767, “Magnetic Microbead Affinity Selection Screening (MagMASS) of Botanical Extracts for Inhibitors of 15-Lipoxygenase” (J Nat Prod, 2016).
Active and inactive are the calls of the source. The rule behind the calls is not given here.

How the values were obtained:
Glycine max [1] = assay: Binding affinity to soybean p1 15-LOX at 100 pmol after 1 hr by magnetic microbead affinity selection screening method
[2] = molecular target: T1, Polyunsaturated fatty acid lipoxygenase ALOX15 (Homo sapiens, UniProt P16050); assay: Inhibition of 15-LOX (unknown origin)
T1 sequence (P16050 whole entry): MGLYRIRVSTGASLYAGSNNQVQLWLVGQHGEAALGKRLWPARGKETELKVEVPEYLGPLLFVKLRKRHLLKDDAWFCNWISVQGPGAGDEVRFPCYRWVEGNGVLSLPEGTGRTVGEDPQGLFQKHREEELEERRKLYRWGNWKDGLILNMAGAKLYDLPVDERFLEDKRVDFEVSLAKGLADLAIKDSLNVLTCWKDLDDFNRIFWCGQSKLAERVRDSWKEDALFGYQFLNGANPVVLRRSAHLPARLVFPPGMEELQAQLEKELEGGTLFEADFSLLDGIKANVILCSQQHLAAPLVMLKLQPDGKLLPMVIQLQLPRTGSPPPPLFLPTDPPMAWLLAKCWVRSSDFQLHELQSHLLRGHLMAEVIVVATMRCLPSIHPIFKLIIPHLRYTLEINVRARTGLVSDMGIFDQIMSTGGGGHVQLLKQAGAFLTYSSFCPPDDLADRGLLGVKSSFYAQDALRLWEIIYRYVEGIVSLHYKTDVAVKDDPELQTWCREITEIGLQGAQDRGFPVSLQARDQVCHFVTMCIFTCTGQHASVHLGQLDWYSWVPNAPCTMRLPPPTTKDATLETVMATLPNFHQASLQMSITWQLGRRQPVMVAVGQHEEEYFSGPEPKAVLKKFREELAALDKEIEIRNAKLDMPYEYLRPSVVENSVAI

[3] = Inhibition of 15-LOX in soybean using linoleic acid as substrate measured for 30 to 90 secs; parameters: species or system Glycine max
Glycine max [4] = assay: Binding affinity to soybean p1 15-LOX at 10 ug after 1 hr by magnetic microbead affinity selection screening method

| Compound | Activity (Glycine max [1]) | IC50 [2] [µM] | IC50 [3] [µM] | Activity (Glycine max [4]) |
| --- | --- | --- | --- | --- |
| O=c1c2ccccc2[se]n1-c1ccccc1 | inactive | – | – | – |
| O=c1cc(-c2ccc(O)c(O)c2)oc2cc(O)cc(O)c12 [LUTEOLIN] | Active | 5 | – | – |
| C[C@@H]1O[C@@H](Oc2c(-c3ccc(O)c(O)c3)oc3cc(O)cc(O)c3c2=O)[C@H](O)[C@H](O)[C@H]1O [QUERCITRIN] | – | – | 79.8 | Active |
